According to patent US6469137B1, “Myelopeptides and their therapeutic use” (Primamedic, Ltd, priority 1997, dated 2002):
Where a SMILES comes first, the peptide text is derived from it.

Experiments:
MT4 cells = format: cell-based, human
Experimental: The HIV-infected MT4 cells were incubated in RPMI-1640 culture medium supplemented with 10% FBS and 2 mM L-glutamine. The MT4 cells (0.5 million cells per 1 ml of culture medium) were placed in wells of a 24-well plastic culture plates and kept for 7 days of 37° C. in an atmosphere of 4.5% CO2. Each of the MPs examined was added into respective wells of the culture plates, to final concentrations of 0.1, 0.5, 1, 5, 10, 50 and 100 μg per 1 ml of culture were used. Azidothymidine (Sigma Chemical Co.) at its final concentration of 0.1 μg/ml, was used as a positive anti-viral control during each of the experiments.
Azidothymidine (0.1 μg/ml) caused 100% inhibition of HIV replication in the infected MT-4 cells.

[1] = system: encephalomyocarditis virus (EMV); test: Anti-viral activity in vitro, L929 cells infected by EMV; format: cell-based, mouse; conditions: pre-incubation 24 or 48 h, then 100 TCID50 of EMV
Experimental: The L929 mouse fibroblastoid cell line was maintained in vitro as described above. MP-3, MP-4, MP-5 and MP-6 were added into triplicate cultures using the following final concentrations: 500, 250, 125, 63, 31, 16, 8, 4, 2, 1, 0.5, 0.25 μg per 1 ml of culture. Ridostin was used as a control interferon-inducer.
24 or 48 h post-injection, the L929 cell cultures were infected by 100 TCID50 of EMV. During the next 24 h the viral infection caused dramatic damages in L929 cells. […] MP-5, by contrast, when added in a final concentration of 16 μg/ml or more, completely abrogated destructive influence of the virus on L929 cells. So did MP-6, when added at a concentration of 4 μg/ml or more. […] MP-4 also defended the L929 cells from the virus-induced damage, after 48 h exposure of the cells in the presence of 32 μg/ml (or higher concentration) of the preparation before their challenge by the virus.

serum interferon = test: Serum interferon increase in mice (titration on EMV-infected L929 cells); format: in vivo; conditions: dose and time not given

| Compound | Damage of MT4 cells (cell viability) (MT4 cells) | Concentration that completely abrogated destructive influence of the virus on L929 cells [1] [µg/mL] | Serum interferon titer, level characteristic of positive control (serum interferon) [units/ml] |
| --- | --- | --- | --- |
| CC(C)C[C@H](N)C(=O)N[C@H](C(=O)N[C@@H](CS)C(=O)N[C@@H](Cc1ccc(O)cc1)C(=O)N1CCC[C@H]1C(=O)N[C@@H](CCC(N)=O)C(=O)O)C(C)C [MP-3, LVCYPQ] (H-LVCYPQ-OH; N-terminus and C-terminus assumed) | no visible damage | – | – |
| CC[C@H](C)[C@H](NC(=O)[C@H](CCCNC(=N)N)NC(=O)[C@@H]1CCCN1C(=O)[C@H](CCCNC(=N)N)NC(=O)[C@@H](N)Cc1ccccc1)C(=O)N[C@@H](CCSC)C(=O)N[C@H](C(=O)N1CCC[C@H]1C(=O)O)[C@@H](C)O [MP-4, FRPRIMTP] (H-FRPRIMTP-OH; N-terminus and C-terminus assumed) | no visible damage | – | – |
| CC(C)[C@H](N)C(=O)N[C@H](C(=O)N[C@@H](Cc1ccc(O)cc1)C(=O)N1CCC[C@H]1C(=O)N[C@@H](CC(=O)O)C(=O)O)C(C)C [MP-5, VVYPD] (H-VVYPD-OH; N-terminus and C-terminus assumed) | no visible damage | – | – |
| CC(C)[C@H](N)C(=O)N[C@@H](CC(=O)O)C(=O)N1CCC[C@H]1C(=O)N1CCC[C@H]1C(=O)O [MP-6, VDPP] (H-VDPP-OH; N-terminus and C-terminus assumed) | no visible damage | – | – |
| Ridostin | – | ≥ 0.5 | 320 |
